Test results: publication PMC5122374 (Oncotarget, 2016)

Legend:
MKN-45 cells [1] = experiment: Cell proliferation assay (SRB or MTT); type: cell-based; conditions: Homo sapiens, MKN-45, 72 h, read-out: anti-proliferative IC50
Experimental: (§1) Cells were seeded in 96-well tissue culture plates. On the next day, cells were exposed to various concentrations of compounds and further cultured for 72 h. For Human umbilical vascular endothelial cells (HUVEC) (passage 3) were transferred to basal medium (without growth factor and serum) for 24 h before compounds treated for another 24 h. Finally, cell proliferation was determined using sulforhodamine B (SRB) assay, Thiazolyl Blue Tetrazolium Bromide (MTT; Sigma) assay or Cell Counting Kit (CCK-8) assay. IC50 values were calculated by concentration-response curve fitting using a SoftMax pro-based four-parameter method.

NCI-H1993 cells = experiment: Cell proliferation assay (SRB or MTT); type: cell-based; conditions: Homo sapiens, NCI-H1993, 72 h; read-out: anti-proliferative IC50
Experimental: as §1

EBC-1 cells [2] = experiment: Cell proliferation assay (SRB or MTT); type: cell-based; conditions: Homo sapiens, EBC-1, 72 h; read-out: anti-proliferative IC50
Experimental: as §1

SNU-5 cells = experiment: Cell proliferation assay (SRB or MTT); type: cell-based; conditions: Homo sapiens, SNU-5, 72 h, read-out: anti-proliferative IC50
Experimental: as §1

[3] = Cell proliferation assay, cell panel (SRB or MTT); type: cell-based; conditions: human, panel of cells with low c-Met expression or activation; read-out: cytotoxicity IC50 values
Experimental: as §1

MKN-45 cells [4] = experiment: Cell cycle analysis by flow cytometry; type: cell-based, human; conditions: MKN-45, 24 h
Experimental: (§2) After 24 h, cells were collected, fixed and stained with propidium iodide (10 μg/mL) for 30 min, then analyzed using a flow cytometer (FACS Caliber instrument; Becton, Dickinson & Co.). Data were plotted using CellQuest (Becton, Dickinson &Co).

EBC-1 cells [5] = experiment: Cell cycle analysis by flow cytometry; type: cell-based, human; conditions: EBC-1, 24 h
Experimental: as §2

MDCK cells [6] = experiment: HGF-induced scattering assay; type: cell-based, canine; conditions: 18 to 24 h
Experimental: MDCK cells (1.5×10^3 cells per well) were plated in 96-well plates and grown overnight. […] The cells were fixed with 4% paraformaldehyde for 15 min at room temperature and then stained with 0.2% crystal violet. The assay was performed in triplicate. Images were obtained using an Olympus IX51 microscope.

MDCK cells [7] = experiment: HGF-induced cell branching morphogenesis in collagen; type: cell-based, canine; conditions: 5 days
Experimental: MDCK cells at a density of 2×10^4 cells/mL in DMEM medium were mixed with an equal volume of collagen I solution and plated at 0.1 mL/well in a 96-well culture plate. […] The medium was replaced with fresh growth medium every 2 days. Images were obtained using an Olympus IX51 microscope after 5 days.

[8] = tested on: uPA activity in MDCK cells; experiment: Urokinase-type plasminogen activator (uPA) assay; type: cell-based, canine; conditions: HGF 100 ng/mL, 24 h, dose-dependent
Experimental: MDCK cells (1.5-2 ×10^3 cells per well) were plated in 96-well plate and grown overnight. […] The plate was processed for determination of plasminogen activity by first rinsing wells twice with DMEM (without phenol red), then adding 200 μL of reaction buffer [10%(v/v) 3 mM chromozym PL (Roche) in 100 mM glycine, 40%(v/v) 50 mM Tris (pH 8.2), 50%(v/v) 0.05 unit/mL plasminogen (Roche) in DMEM (without phenol red), and 0.2% Tween-20] to each well. After incubation at 37°C, 5% CO2 for 6 h, the absorbance of each well was read at 405 nm.

[9] = tested on: EBC-1 human NSCLC xenograft; experiment: In vivo antitumor activity, EBC-1 xenograft
Experimental: . Animal procedures were performed according to institutional ethical guidelines of animal care. […]. After that, the well-developed tumors were cut into 1 mm^3 fragments and transplanted s.c. into the right flank of nude mice using a trocar. When the tumor volume reached 100-200 mm^3, the mice were randomly assigned into vehicle and treatment groups (n = 6 per group). […] The sizes of the tumors were measured twice per week using microcaliper. The tumor volume (TV) was calculated as: TV = (length×width^2)/2 and the individual relative tumor volume (RTV) was calculated as follows: RTV = Vt/V0, where Vt is the volume on each day, and V0 is the volume at the beginning of the treatment. RTV was shown on indicated days as the median RTV ± SE indicated for groups of mice.
Tumor specimens were fixed in 4% paraformaldehyde for 24 h. Tumor samples were subsequently paraffin-embedded, and sliced onto microscope slides. After dewaxing and blocking endogenous peroxidase activity with 3% H2O2, the sections were incubated with 1.5% normal goat serum, followed by overnight incubation at 4°C with anti-phospho-c-Met antibody (Y1234/1235), anti-CD31 antibody or anti-Ki67 antibody. Then, the sections were incubated with biotin-conjugated anti-rabbit IgG for 2 h at 37°C followed by incubating for 1 h with avidin-biotin-peroxidase complex (ABC) using a Vectastain ABC kit(Vector Laboratories). Staining was detected using the DAB (3, 3′-diaminobenzidine tetrahydrochloride) Liquid System (ZSGB-Bio) and imaged in 5 different fields of each section. Anti-phospho-c-Met and anti-CD31 antibody immunostained sections were counterstained using hematoxylin.

[10] = tested on: SNU-5 human gastric carcinoma xenograft; experiment: In vivo antitumor activity, SNU-5 xenograft; design: species or system nude mice
Experimental: Female nude mice (4-6 weeks) were housed five or six mice per cage in a specific pathogen-free room with a 12 h light/dark schedule at 25°C ± 1°C and were fed an autoclaved chow diet and water ad libitum. Animal procedures were performed according to institutional ethical guidelines of animal care. […] After that, the well-developed tumors were cut into 1 mm^3 fragments and transplanted s.c. into the right flank of nude mice using a trocar. […] The sizes of the tumors were measured twice per week using microcaliper. The tumor volume (TV) was calculated as: TV = (length×width^2)/2 and the individual relative tumor volume (RTV) was calculated as follows: RTV = Vt/V0, where Vt is the volume on each day, and V0 is the volume at the beginning of the treatment. RTV was shown on indicated days as the median RTV ± SE indicated for groups of mice. […] Tumor specimens were fixed in 4% paraformaldehyde for 24 h. Tumor samples were subsequently paraffin-embedded, and sliced onto microscope slides. […] Staining was detected using the DAB (3, 3'-diaminobenzidine tetrahydrochloride) Liquid System (ZSGB-Bio) and imaged in 5 different fields of each section. Anti-phospho-c-Met and anti-CD31 antibody immunostained sections were counterstained using hematoxylin. Serum levels of human IL-8 were detected by using Human IL-8 Quantikine ELISA Kit (R&D Systems, Inc.) follows the instructions.

NCI-H441 cells [11] = experiment: HGF-induced Transwell migration assay; type: cell-based, human; conditions: NCI-H441, HGF 100 ng/mL, 24 h
Experimental: (§3) For the migration assay, NCI-H441 cells suspended in serum-free medium (1.5×10^5 cells per well) were seeded in 24-well Transwell plates (pore size, 8 μm; Corning). […] The cultures were maintained for 24 h, followed by the removal of non-motile cells at the top of the filter using a cotton swab. The migrating cells were fixed in paraformaldehyde (4%) and stained with crystal violet (0.1%) for 15 min at room temperature. The dye that was taken up by the cells bound to the membrane was released by the addition of 100 μL 10% acetic acid, and the absorbance of the resulting solution was measured at 595 nm using a multiwell spectrophotometer (SpetraMAX 190, from Molecular Devices, Palo Alto, CA, USA). The assay was performed in triplicate. Images were obtained using an Olympus BX51 microscope.

NCI-H441 cells [12] = experiment: HGF-induced Matrigel invasion assay; type: cell-based, human; conditions: NCI-H441, HGF 100 ng/mL, 24 h
Experimental: as §3
For the invasion assay, NCI-H441 cells were cultured in the top chambers containing Matrigel-coated membrane inserts (Matrigel, BD). The ensuing procedure was identical to the migration assay. The assay was performed in triplicate. Images were obtained using an Olympus BX51 microscope.

[13] = tested on: MMP-9 expression in NCI-H441 cells; experiment: Gelatin zymography of HGF-induced MMP-9 expression; type: cell-based, human; conditions: NCI-H441, HGF 100 ng/mL, 24 h, dose-dependent
Experimental: NCI-H441 cells were seeded in a six-well plate (5×10^5 per well) and incubated at 37°C. […] The conditioned medium was collected and centrifuged at 12,000 g for 15 min and concentrated by Micro centrifugal filter device (Millipore Corporation). Then the supernatants were collected and separated on 7.5% SDS-PAGE with 2 mg/mL gelatin incorporated into the gel mixture. Following electrophoresis at 4°C, the gels were rinsed briefly with distilled water and washed three times (15 min each) with 150 ml of 2.5% Triton X-100 solution on a rotary shaker. The gels were then incubated at 37°C for 18 h in 250 ml of 50 mmol/L Tris·HCl (pH 7.5) that contained 10 mmol/L CaCl2, 1 μM ZnCl2, 1% Triton X-100, and 0.02% NaN3. After incubation, the gels were stained with 100 ml of 50% methanol, 10% acetic acid, and 0.1% Coomassie blue R-250 for 3 h, then destained with 50% methanol and 10% acetic acid. Finally, the gels were immersed in distilled water for 20 min and quantified by densitometric analysis using Image Lab software (Bio-Rad Laboratories, Inc.).

[14] = tested on: c-Met phosphorylation and its downstream signaling; experiment: Immunoblotting of c-Met signaling in HGF-stimulated HUVEC cells; type: cell-based, human; conditions: Simm530 2 h then 100 ng/mL HGF 15 min
Experimental: Cells were cultured under regular growth conditions to exponential growth phase. […] Those cell lysates were subsequently resolved on 10% SDS-PAGE, and transferred to nitrocellulose membranes. Proteins were probed with specific antibody then subsequently with secondary horseradish peroxidase-conjugated antibody. Finally, immunoreactive proteins were detected using an enhanced chemiluminescence detection reagent (Pierce, Thermo Fisher Scientific Inc.).

Structure (SMILES): Cn1cc(-c2cnc3nnc(C(F)(F)c4ccc5ncccc5c4)n3n2)cn1 [Simm530]
- IC50 (MKN-45 cells [1]): 0.7 ± 0.1 nM
- IC50 (NCI-H1993 cells): 0.8 nM
- IC50 (EBC-1 cells [2]): 0.7 nM
- IC50 (SNU-5 cells): 0.9 ± 0.2 nM
- IC50 at 72 h [3]: > 50000 nM
- sub-G1 cell population (apoptosis) (MKN-45 cells [4]): no obvious sub-G1 cell population
- effect on cell cycle distribution (MKN-45 cells [4]; dose-dependent, P<0.001): G1/S phase arrest
- sub-G1 cell population (apoptosis) (EBC-1 cells [5]): no obvious sub-G1 cell population
- effect on cell cycle distribution (EBC-1 cells [5]; dose-dependent, P<0.001): G1/S phase arrest
- effect on HGF-induced cell scattering (MDCK cells [6]): strongly inhibited
- effect on HGF-induced branching morphogenesis (MDCK cells [7]): strongly inhibited
- effect on HGF-induced urokinase activity [8]: significantly inhibited
- tumor response ([9]; 12.5 mg/kg oral twice daily): Tumor stasis
- mice showing no signs of tumor ([9]; 100 mg/kg twice daily): 4 of the 6
- tumor response ([9]; 50 and 100 mg/kg oral twice daily): tumor regression
- intratumoral phosphorylation of c-Met ([9]; 2 hours after the final dosage, immunoblotting): marked and dose-dependent inhibition
- CD31-positive endothelial cells (microvessel density) ([9]; IHC, 2 h after final administration): significant reduction
- tolerance (body weight) ([9]; all tested dosages, data not shown): lack of significant weight loss
- tumor response ([10]; 12.5 mg/kg and 25 mg/kg oral twice daily): tumor stasis and regression
- intratumoral phosphorylation of c-Met ([10]; 2 hours after the final dosage, immunoblotting and IHC): marked and dose-dependent inhibition
- IL-8 plasma level ([10]; human IL-8 ELISA, day 21, P<0.001): significant reduction
- dose sufficient to block the movement of most cells (motility) (NCI-H441 cells [11]): 4 nM
- dose sufficient to block the movement of most cells (invasion) (NCI-H441 cells [12]): 4 nM
- effect on HGF-induced MMP expression [13]: significantly inhibited
- effect on c-Met phosphorylation and its downstream signaling [14]: potently inhibited
